Where “and” joins values, the source holds several entries; their conditions need not be identical. Equal values may be shown once.
Legend:
Assay in all cases: normalised viability (% of control), CellTiter-Blue; higher = more viable cells (about 100 = DMSO control)
[1] = system: BT-474; conditions: incubation time: 72 h
Experimental: (§1)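 DSRT, CellTiter-Blue viability, 72 h incubation. Signal is normalised to DMSO and benzethonium chloride controls. Value is the normalised response at dose 3.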

[2] = system: BT-549; conditions: incubation time: 72 h
Experimental: as §1

[3] = system: CAL-148; conditions: incubation time: 72 h
Experimental: as §1

[4] = system: CAL-85-1; conditions: incubation time: 72 h
Experimental: as §1

[5] = system: DU-4475; conditions: incubation time: 72 h
Experimental: as §1

[6] = system: HCC1143; conditions: incubation time: 72 h
Experimental: as §1

[7] = system: HCC1937; conditions: incubation time: 72 h
Experimental: as §1

[8] = system: HDQ-P1; conditions: incubation time: 72 h
Experimental: as §1

[9] = system: MDA-MB-468; conditions: incubation time: 72 h
Experimental: as §1

[10] = system: SK-BR-3; conditions: incubation time: 72 h
Experimental: as §1

[11] = system: BT-474; conditions: incubation time: 72 h; remark: listed apart in the source
Method in brief: (§2)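 Each entry is normalised viability at a single listed concentration within a series. It comes from breast cancer cell lines incubated 72 h with compound in 384-well plates, then measured with CellTiter-Blue fluorescence at 560/590 nm. Every plate was normalised between vehicle (100) and a positive kill control (0).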

[12] = system: BT-549; conditions: incubation time: 72 h; remark: listed apart in the source
Method in brief: as §2

[13] = system: CAL-120; conditions: incubation time: 72 h
Method in brief: as §2

[14] = system: CAL-51; conditions: incubation time: 72 h
Method in brief: as §2

[15] = system: CAL-85-1; conditions: incubation time: 72 h; remark: listed apart in the source
Method in brief: as §2

[16] = system: DU-4475; conditions: incubation time: 72 h; remark: listed apart in the source
Method in brief: as §2

[17] = system: HCC1143; conditions: incubation time: 72 h; remark: listed apart in the source
Method in brief: as §2

[18] = system: HCC1599; conditions: incubation time: 72 h
Method in brief: as §2

[19] = system: HCC1937; conditions: incubation time: 72 h; remark: listed apart in the source
Method in brief: as §2

[20] = system: HDQ-P1; conditions: incubation time: 72 h; remark: listed apart in the source
Method in brief: as §2

[21] = system: Hs578T; conditions: incubation time: 72 h
Method in brief: as §2

[22] = system: MDA-MB-231; conditions: incubation time: 72 h
Method in brief: as §2

[23] = system: MDA-MB-436; conditions: incubation time: 72 h
Method in brief: as §2

[24] = system: MDA-MB-453; conditions: 3 nM; incubation time: 72 h
Method in brief: as §2

[25] = system: MDA-MB-468; conditions: incubation time: 72 h; remark: listed apart in the source
Method in brief: as §2

[26] = system: MFM-223; conditions: incubation time: 72 h
Method in brief: as §2

[27] = system: SK-BR-3; conditions: incubation time: 72 h; remark: listed apart in the source
Method in brief: as §2

[28] = system: CAL-148; conditions: incubation time: 72 h; remark: listed apart in the source
Experimental: (§3)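 DSRT, CellTiter-Blue viability, 72 h incubation. Signal is normalised to DMSO and benzethonium chloride controls. Value is the normalised response at dose 6.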

[29] = system: CAL-51; conditions: incubation time: 72 h; remark: listed apart in the source
Experimental: as §3

[30] = system: CAL-85-1; conditions: incubation time: 72 h; remark: listed apart in the source
Experimental: as §3

[31] = system: DU-4475; conditions: incubation time: 72 h; remark: listed apart in the source
Experimental: as §3

[32] = system: HDQ-P1; conditions: incubation time: 72 h; remark: listed apart in the source
Experimental: as §3

[33] = system: MDA-MB-453; conditions: incubation time: 72 h
Experimental: as §3

For `Cn1c(=O)n(-c2ccc(C(C)(C)C#N)cc2)c2c3cc(-c4cnc5ccccc5c4)ccc3ncc21` [NVP-BEZ235], the normalised viability ([1]; 10 nM) was 91.6%, the normalised viability ([2]; 10 nM) was 68.2% and the normalised viability ([3]; 1 nM) was 108%. It also gave a normalised viability ([4]; 1 nM) of 110%, a normalised viability ([5]; 1 nM) of 101% and a normalised viability ([6]; 10 nM) of 70.9%. For the same compound, the normalised viability ([7]; 10 nM) was 59.9%, the normalised viability ([8]; 1 nM) was 102% and the normalised viability ([9]; 10 nM) was 86.6%. It also gave a normalised viability ([10]; 10 nM) of 88.4%, a normalised viability ([11]; 100 nM) of 42.9% and a normalised viability ([12]; 100 nM) of 21.7%. For the same compound, the normalised viability ([13]; 100 nM) was 17.6%, the normalised viability ([14]; 3 nM) was 84.7% and the normalised viability ([15]; 3 nM) was 84.5%. The normalised viability ([16]; 3 nM) was 107%, the normalised viability ([17]; 100 nM) was 37.9% and the normalised viability ([18]; 100 nM) was 64.8%. For the same compound, the normalised viability ([19]; 100 nM) was 47.4%, the normalised viability ([20]; 3 nM) was 94.5% and the normalised viability ([21]; 100 nM) was 32.5%. For the same compound, the normalised viability ([22]; 100 nM) was 26.8%, the normalised viability ([23]; 100 nM) was 68.2% and the normalised viability [24] was 87.9%. It also gave a normalised viability ([25]; 100 nM) of 37%, a normalised viability ([26]; 100 nM) of 24.5% and a normalised viability ([27]; 100 nM) of 21.9%. It also gave a normalised viability ([28]; 30 nM) of 32.4%, a normalised viability ([29]; 30 nM) of 29.5% and a normalised viability ([30]; 30 nM) of 47.8%. It also gave a normalised viability ([31]; 30 nM) of 65.2%, a normalised viability ([32]; 30 nM) of 39.8% and a normalised viability ([33]; 30 nM) of 21.9%.

For `CO[C@H]1C[C@@H]2CC[C@@H](C)[C@@](O)(O2)C(=O)C(=O)N2CCCC[C@H]2C(=O)O[C@H]([C@H](C)C[C@@H]2CC[C@@H](OCCO)[C@H](OC)C2)CC(=O)[C@H](C)/C=C(\C)[C@@H](O)[C@@H](OC)C(=O)[C@H](C)C[C@H](C)/C=C/C=C/C=C/1C` [Everolimus], the normalised viability ([1]; 10 nM) was 65.6% and 61.3%, the normalised viability ([2]; 10 nM) was 66.5% and 53.2% and the normalised viability ([3]; 1 nM) was 65.8% and 59.4%. The normalised viability ([4]; 1 nM) was 71.8% and 59.9%, the normalised viability ([5]; 1 nM) was 96.6% and 83.4% and the normalised viability ([7]; 10 nM) was 60.5% and 63.5%. For the same compound, the normalised viability ([8]; 1 nM) was 80.8% and 75%, the normalised viability ([9]; 10 nM) was 84.1% and 59.7% and the normalised viability ([10]; 10 nM) was 48.1% and 51.2%. For the same compound, the normalised viability ([11]; 100 nM) was 65.9% and 57.5%, the normalised viability ([12]; 100 nM) was 62.1% and 54.9% and the normalised viability ([13]; 100 nM) was 54.1% and 36.7%. For the same compound, the normalised viability ([14]; 3 nM) was 49.6% and 52.9%, the normalised viability ([15]; 3 nM) was 63.9% and 54% and the normalised viability ([18]; 100 nM) was 87% and 69.7%. For the same compound, the normalised viability ([19]; 100 nM) was 48.8% and 48.4%, the normalised viability ([20]; 3 nM) was 71.3% and 59.9% and the normalised viability ([21]; 100 nM) was 62.4% and 51%. For the same compound, the normalised viability ([22]; 100 nM) was 48.1% and 68.9%, the normalised viability [24] was 30.8% and 28.6% and the normalised viability ([25]; 100 nM) was 72.6% and 66.8%. The normalised viability ([26]; 100 nM) was 50% and 45.1%, the normalised viability ([27]; 100 nM) was 59.7% and 44.4% and the normalised viability ([28]; 30 nM) was 42.9% and 41.6%. For the same compound, the normalised viability ([29]; 30 nM) was 39.1% and 41.5%, the normalised viability ([30]; 30 nM) was 61.6% and 56.1% and the normalised viability ([31]; 30 nM) was 50.6% and 60.2%. The normalised viability ([32]; 30 nM) was 38.7% and 49% and the normalised viability ([33]; 30 nM) was 30.5% and 29.2%.

For `Cc1ccc(NC(=O)c2ccc(CN3CCN(C)CC3)cc2)cc1Nc1nccc(-c2cccnc2)n1` [Imatinib], the normalised viability ([1]; 100 nM) was 103% and 126%, the normalised viability ([2]; 100 nM) was 102% and 109% and the normalised viability ([3]; 10 nM) was 84.3% and 89%. The normalised viability ([4]; 10 nM) was 102% and 92.3%, the normalised viability ([5]; 10 nM) was 106% and 95.3% and the normalised viability ([6]; 100 nM) was 85.9% and 82.9%. For the same compound, the normalised viability ([7]; 100 nM) was 94.5%, the normalised viability ([8]; 10 nM) was 106% and 126% and the normalised viability ([9]; 100 nM) was 99.2% and 98%. For the same compound, the normalised viability ([10]; 100 nM) was 86.2% and 75.6%, the normalised viability ([11]; 1000 nM) was 111% and the normalised viability ([12]; 1000 nM) was 95.8% and 88.7%. For the same compound, the normalised viability ([13]; 1000 nM) was 86.6% and 91.9%, the normalised viability ([14]; 30 nM) was 106% and 99.3% and the normalised viability ([15]; 30 nM) was 91.2% and 88%. For the same compound, the normalised viability ([16]; 30 nM) was 104% and 85.4%, the normalised viability ([17]; 1000 nM) was 85.9% and 97% and the normalised viability ([18]; 1000 nM) was 109% and 102%. For the same compound, the normalised viability ([19]; 1000 nM) was 80.5% and 85.3%, the normalised viability ([20]; 30 nM) was 89.2% and 107% and the normalised viability ([21]; 1000 nM) was 100% and 103%. For the same compound, the normalised viability ([22]; 1000 nM) was 92.1% and 110%, the normalised viability ([23]; 1000 nM) was 74.6% and 90.3% and the normalised viability ([25]; 1000 nM) was 106% and 109%. For the same compound, the normalised viability ([26]; 1000 nM) was 104% and 100%, the normalised viability ([27]; 1000 nM) was 103% and 115% and the normalised viability ([28]; 300 nM) was 83.5% and 104%. The normalised viability ([29]; 300 nM) was 106% and 102%, the normalised viability ([30]; 300 nM) was 101% and 94.4% and the normalised viability ([31]; 300 nM) was 97.8% and 89.4%. The normalised viability ([32]; 300 nM) was 74.9% and 72.5% and the normalised viability ([33]; 300 nM) was 86.5% and 88.3%.

From the supplement of paper PMC4862054
